Laboratory results from patent US20250152605A1, “METHOD AND DRUG FOR TREATING NEURONAL CEROID LIPOFUSCINOSIS” (priority 2021, published 2025).

Experiments:
[1] = test system: CLN3^Δex7/8 human neural stem cells; assay: Tandem LC3 autophagic flux in human neural stem cells; type: cell-based
Text: After lysosomal function defects were detected in CLN3^Δex7/8 neural stem cells and neurons, autophagic flux in the cells was further examined. Equal amounts of lentivirus packaged with tandem LC3 plasmid were used to infect wild-type and CLN3^Δex7/8 cells to label intracellular autophagosomes.
Autophagosomes in neural stem cells were labeled using tandem LC3, and the number of autophagosomes with green fluorescence and those with red fluorescence only were observed by high-intensity laser confocal microscope.

Cln3 KO mice = assay: Open field test; type: in vivo, mouse; settings: 4-5 months old Cln3 KO mice, within 10 minutes
Protocol: Open field tests were conducted on mice using blue boxes measuring 50 cm×50 cm×40 cm, with specific steps as follows: the mice to be tested were kept in single cages for more than 1 week to adapt to the environment; the central 25 cm×25 cm area of the box was divided into a central area. The mice were placed gently in the central area facing away from the experimenter, and the video device was started to record the movement track of the mice within 10 minutes; the boxes were thoroughly wiped twice with 75% ethanol to eliminate the odor of the mouse, and then the next mouse was placed for movement track record within 10 minutes; the movement track of mice was analyzed with the Noldus software, and the analysis indicators included the movement speed and total movement distance of mice. The number of times the mice stood upright on their hind legs within 10 minutes was manually counted by the experimenter.
[…] experiments were conducted on 4-5 months old wild-type mice, Cln3 KO mice, and Compound G-treated Cln3 KO mice. The mouse was gently placed in the mine field, it was allowed to move freely, and the route, distance and speed of its movement within 10 minutes were recorded.

[2] = test system: CLN3^Δex7/8 neural stem cells; assay: Immunofluorescence staining of neural stem cell lineage markers; type: cell-based, human; settings: 48 hours of treatment
Protocol: Fixation: the cell medium was aspirated and the cells were washed once with dPBS, then 4% paraformaldehyde solution was added to fix the cells, which were then incubated at room temperature for 20 min and washed 3 times with dPBS for 5 min each; blocking and permeabilization: blocking solution (5% BSA and 0.3% Trinton-X100 dissolved in dPBS) was added, incubation at room temperature for 1 hour followed by washing with dPBS 3 times for 5 minutes each; primary antibody incubation: the antibody was diluted with dPBS containing 5% BSA according to the specification, incubated overnight at 4° C. or 2 hours at room temperature, and washed 3 times with dPBS for 5 minutes each; secondary antibody incubation: the secondary antibody of the corresponding species was diluted with dPBS containing 5% BSA at a ratio of 1:1000, incubated at room temperature for 1 hour, and then washed with dPBS 3 times for 5 minutes each; nuclear staining: DAPI was diluted to 100 ng/ml with dPBS, incubated at room temperature for 5 minutes, and washed 3 times with dPBS for 5 minutes each; imaging: imaging was performed using Olympus IX83 Inverted Motorized Microscope or Opera Phenix™ High Content Screening System.
After 48 hours of treatment of CLN3^Δex7/8 neural stem cells with Compound G, immunofluorescence staining was performed for the neural stem cell lineage markers SOX1, PAX6 and NESTIN.

mice's neurons = assay: qRT-PCR of autophagy-related and lysosomal genes in mouse neurons; type: cell-based; settings: 6 hours
Protocol: The cells in the cell-culture dish were collected, extracted using AxyPrep Total RNA Mini Prep Kit or Qiagen AxyPrep Total RNA Mini Prep Kit, and the extracted RNA concentration is measured using Nanodrop; the extracted mRNA was reverse transcribed into cDNA by Transgen's EasyScript® One-Step gDNA Removal and cDNA Synthesis SuperMix and the primers used for reverse transcription were Oligo dT primers; the completion of reverse transcription followed by qRT-PCR reaction through PerfectStart™ Green qPCR SuperMix to detect the expression of the target gene; the qRT-PCR reaction was performed on the Bio-Rad CFX96 Real-Time PCR system; see Table 2 and Table 3 for the 20 μL qRT-PCR reaction system and reaction procedures; data analysis was performed in Prism 7 software using the 2^−ΔΔCt process with GAPDH as internal reference for relative quantification of the expression of the target gene.
After treating primary (a) neural stem cells and (b) neurons of Cln3 KO) mice for 6 hours, the mRNA was extracted from the cells, reverse-transcribed into cDNA, and transcription levels of autophagy- and lysosome-related genes were detected using qRT-PCR (n=3).
It was speculated from this that the known target FXR of Compound G was expressed at low or no levels in neural lineage cells. […]

[3] = test system: CLN3^Δex7/8 neural stem cells; assay: Lysotracker staining of CLN3^Δex7/8 neural stem cells; type: cell-based, human
Protocol: The cells were stained with Lysotracker, a fluorescent dye that is enriched in acidic lysosomes and emits red fluorescence. The fluorescence intensity of the stained cells was then analyzed using flow cytometry.

SMILES: C/C=C1\C(=O)C[C@H]2[C@@H]3CCC4=CC(=O)CC[C@]4(C)[C@H]3CC[C@]12C [Compound G, (Z)-guggulsterone]
- number of red fluorescence single-positive autophagosomes [1]: increased the number of red fluorescence single-positive autophagosomes
- distance of the movement in the field (Cln3 KO mice): improve the distance and the speed of the movement
- speed of the movement in the field (Cln3 KO mice): improve the distance and the speed of the movement
- neural stem cell lineage markers SOX1, PAX6 and NESTIN (cell fate) [2]: maintained the characteristics of SOX1, PAX6 and NESTIN positive
- transcription level of the autophagy-related genes or the lysosomal genes (mice's neurons): did not significantly increase
- Lysotracker staining in neural stem cells [3]: significantly improve the Lysotracker staining
